Test results reported in publication PMC9763021, “Comprehensive Assessment of Biomolecular Interactions of Morpholine-Based Mixed Ligand Cu(II) and Zn(II) Complexes of 2,2′-Bipyridine as Potential Anticancer and SARS-CoV-2 Agents: A Synergistic Experimental and Structure-Based Virtual Screening” (Bioinorganic Chemistry and Applications, 2022).

How the values were obtained:
[1] = tested on: A549 human lung cancer cell line; assay: MTT cell viability assay, A549; format: cell-based; conditions: 72 hours exposure
Procedure: (§1) All substances towards the A549, HepG2, MCF-7, and NHDF cell lines were evaluated by using the MTT approach. The collected data were utilized to compute the IC50 value and contrast it with the gold standard cisplatin anticancer medication.
(§2) Cellular viability or metabolic properties can be measured using the MTT assay, which is a powerful and credible method for anticancer properties. The anticancer efficacy of all test compounds was investigated by the MTT assay against A549, HepG2, MCF-7, and NHDF cell lines. As per the colorimetric approach, the IC50 findings of all test substances were evaluated as the % of cell viability/growth inhibition. […] Nevertheless, complex (1a) has the highest cytotoxic potential among others. The acquired findings were in the subsequent sequence as follows: (cisplatin) > (1a) > (2a) > (HL) (Figure 16 and Table 10). The cytotoxic effectiveness is dependent upon the DNA-binding modalities, the structure-activity relationship, as well as drug concentrations and incubation period exposure. […] As per Tweedy's chelation theory, charge equilibration happens as a result of coordination between the ligands and metal ions, which minimises the polarity of the metal ions and causes the capability of the test complexes to pass via the cell membrane lipid layer. Thus, it put off the synthesis of cell wall/protein/nucleic acids. Additionally, the results of DNA-binding tests using these complexes, including gel electrophoresis, UV-visible spectral titration, hydrodynamic, emission, and CV findings, were in good agreement with the findings of cytotoxicity. The expressions (46) and (47) were supported to measure the % of growth inhibition and cell viability. […]
(§3) A549, HepG2 MCF-7, and NHDF are represented as human lung cancer cell line, liver cancer cell line, breast cancer cell line, and normal human dermal fibroblasts cell line.(45) % Cytotoxiciy=1− Mean absorbance of Sample at 595 nm/Mean absorbance of Controlat 595 nm ×100, (46) Cellviability%=100−Cytotoxiciy%.

[2] = tested on: NHDF normal human dermal fibroblasts cell line; assay: MTT cell viability assay, NHDF; format: cell-based; conditions: 72 hours exposure, normal cells
Procedure: as §1, §2, §3

[3] = tested on: MCF-7 breast cancer cell line; assay: MTT cell viability assay, MCF-7; format: cell-based, human; conditions: 72 hours exposure
Procedure: as §1, §2, §3

[4] = tested on: HepG2 liver cancer cell line; assay: MTT cell viability assay, HepG2; format: cell-based, human; conditions: 72 hours exposure
Procedure: as §1, §2, §3

[5] = tested on: Salmonella enteric serovar typhi; assay: Agar disc diffusion, strain B; format: cell-based
Procedure: (§4) In-vitro antimicrobial properties were evaluated for all samples by the agar disc diffusion method towards different fungal and bacterial strains. Additionally, the reported inhibition zone values were comparatively analyzed with the standard antifungal drugs ketoconazole and amphotericin B as well as the standard antibiotic medications streptomycin and amikacin.
(§5) The current research has a curious focus on the in vitro antimicrobial properties of biological systems because these studies are crucial for developing effective antibacterial and antifungal medications. […] It can also be spelled out based on the chelation theory proposed by Overtone and Tweedy. Chelation theory points out that the partial exchanging of the positive charge of the metal center with donor moieties, and overlap of the ligand orbitals will reduce the greater degree of the metal ion's polarity, which ultimately rises the delocalization of π and d electrons over the full chelated ring system. By raising the size of the metal ion due to the retarding of polarization, chelation may also enhance the complexes' lipophilic characteristics, which further stimulate the lipid membrane permeability and break down the bacteria' enzymes responsible for cell wall formation, therefore slowing down the regular cell processes. By preventing the production of cell walls/proteins/DNA, including by obstructing folate metabolism and the cytoplasmic membrane, antimicrobial drugs frequently either fully eliminate microbes or only prevent their cell growth. Additionally, the samples' mode of action may be employed in disrupting the cell's respiration process by forming an H-bond during the morpholine-fused iminic group coordinated with the active metal center of its components, inhibiting proliferation of the cell. […] The difference in the antimicrobial efficacy of some of the compounds towards various microorganisms influences on the impermeability of the cells of the germs or the diversity of ribosomes of the microbes. The % of the inhibition of all substances is estimated from (45) (Table 9).
(§6) (A, B, C, D, and E are represented as gram negative bacteria species Escherichia coli, Salmonella enteric serovar typhi, Salmonella enteric serovar typhi, Pseudomonas aeruginosa, and Shigella flexneri, respectively. F & G are denoted as gram positive bacteria species Staphylococcus aureus and Bacillus cereus. H, I, and J are represented as fungal strains Aspergillus niger, Candida albicans, and Mucor indicus. Standard drugs for bacterial strains: Amikacin & Streptomycin Standard drugs for fungal strains: Ketoconazole and Amphotericin B. [Control (DMSO) = 6 mm].(44) Inhibition %=T–C/T×100, where T and C are represented as the diameter of microbial growth of the sample plates and the control plate (6 mm), respectively. Error limits ±2.5–5.0% (P ≤ 0.05).

[6] = tested on: Staphylococcus aureus; assay: Agar disc diffusion, strain F; format: cell-based; design: (inhibition %): concentration or dose not given beside the values
Procedure: as §4, §5, §6

[7] = tested on: Salmonella enteric serovar typhi; assay: Agar disc diffusion, strain C; format: cell-based
Procedure: as §4, §5, §6

[8] = tested on: Escherichia coli; assay: Agar disc diffusion, strain A; format: cell-based; design: (inhibition %): concentration or dose not given beside the values
Procedure: as §4, §5, §6

[9] = tested on: Pseudomonas aeruginosa; assay: Agar disc diffusion, strain D; format: cell-based; design: (inhibition %): concentration or dose not given beside the values
Procedure: as §4, §5, §6

[10] = tested on: Shigella flexneri; assay: Agar disc diffusion, strain E; format: cell-based; design: (inhibition %): concentration or dose not given beside the values
Procedure: as §4, §5, §6

[11] = tested on: Bacillus cereus; assay: Agar disc diffusion, strain G; format: cell-based; design: (inhibition %): concentration or dose not given beside the values
Procedure: as §4, §5, §6

Compound: N.N.[Cl][Pt][Cl] [Cisplatin, reference compound]
- IC50 [1]: 31.9 ± 1.6 µM
- IC50 [2]: 26.9 ± 1.3 µM
- IC50 [3]: 20.2 ± 1 µM
- IC50 [4]: 22.9 ± 1.1 µM

Compound: NCC[C@H](O)C(=O)N[C@@H]1C[C@H](N)[C@@H](O[C@H]2O[C@H](CN)[C@@H](O)[C@H](O)[C@H]2O)[C@H](O)[C@H]1O[C@H]1O[C@H](CO)[C@@H](O)[C@H](N)[C@H]1O [Amikacin, reference compound]
- (inhibition %) [5]: 73%
- diameter of the clear zone inhibition ([5]; control = 6 mm): 22 mm
- (inhibition %) [6]: 70%
- diameter of the clear zone inhibition ([6]; control = 6 mm): 20 mm
- (inhibition %) [7]: 75%
- diameter of the clear zone inhibition ([7]; control = 6 mm): 24 mm
- (inhibition %) ([8]; (T–C)/T×100): 73%
- diameter of the clear zone inhibition ([8]; control (DMSO) = 6 mm): 22 mm
- (inhibition %) [9]: 70%
- diameter of the clear zone inhibition ([9]; control = 6 mm): 20 mm
- (inhibition %) [10]: 70%
- diameter of the clear zone inhibition ([10]; control = 6 mm): 20 mm
- (inhibition %) [11]: 70%
- diameter of the clear zone inhibition ([11]; control = 6 mm): 20 mm
